These results are taken from PubChem BioAssay (NCI).

As usually defined, the TGI is the concentration giving total growth inhibition. A low value points to greater sensitivity of the cells.

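All cell lines were grown in 96-well plates and treated with compound for 48 hours. TGI denotes the concentration required for complete inhibition of growth.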

The first assay concerns MDA-N. In words: DTP human tumour cell line panel, 48 h.
Compound `CC(=O)CCCCC(=O)Nc1ccc(CC(NC(=O)OC(C)(C)C)C(=O)NCC(=O)OCc2ccccc2)cc1` (stereo not given) had a TGI of 38.6 µM.

A further assay deals with LOX IMVI melanoma. The assay is described as follows: DTP human tumour cell line panel, 48 h.
In turn, `CC(=O)OCOC(=O)CN(CC(=O)OCOC(C)=O)Cc1cc2c(cc1OC(C)=O)Oc1cc(OC(C)=O)c(CN(CC(=O)OCOC(C)=O)CC(=O)OCOC(C)=O)cc1C21OC(=O)c2ccccc21` registered a TGI of 1.29 µM.
In turn, `NC(=O)c1cc2cc(Cl)cc(Cl)c2oc1=Nc1ccc(F)cc1` came in with a TGI above 100 µM.
Same read-out and setting: under `COc1ccc2nc(-n3c(/C=C/c4ccccc4O)nc4ccccc4c3=O)sc2c1` stands above 100 µM; under `O=CC(=C(I)I)c1ccccc1`, 4.06 µM.
Same read-out and setting: under `O=C1C=C2C(=NC34CCCCC3C(c3ccccc3)C3=C(c5ccccc5CC3)N24)c2ccccc21` (stereo not given) stands above 10 µM; under `O=[N+]([O-])C(C(Cl)=C(Cl)Cl)=C(N(Cc1ccccc1)Cc1ccccc1)N(Cc1ccccc1)Cc1ccccc1`, above 100 µM.
`CCCC1(NC(=O)C(F)(F)F)CC(OC)OC2COC(c3ccccc3)OC21` (stereo not given): the TGI was above 100 µM.
Same read-out and setting: under `CCC1NC(=O)C1NC(=O)OC` (stereo not given) stands above 100 µM.
Compound `O=c1c2nn3c(=O)n(-c4ccccc4)c(=O)c3nn2c(=O)n1-c1ccccc1` yielded a TGI above 100 µM.
Same read-out and setting: the value for `COC(=O)C1=CC2CCCC1(O)C(C(C)=O)C2` (stereo not given) was 34.3 µM; that for `CC(=O)CCCCC(=O)Nc1ccc(CC(NC(=O)OC(C)(C)C)C(=O)NCC(=O)OCc2ccccc2)cc1` (stereo not given) was 29.3 µM.

A further assay deals with MCF7 breast. In words: DTP human tumour cell line panel, 48 h.
For the compound `CC(=O)OCOC(=O)CN(CC(=O)OCOC(C)=O)Cc1cc2c(cc1OC(C)=O)Oc1cc(OC(C)=O)c(CN(CC(=O)OCOC(C)=O)CC(=O)OCOC(C)=O)cc1C21OC(=O)c2ccccc21`, the TGI worked out at 7.73 µM.
Same read-out and setting: under `NC(=O)c1cc2cc(Cl)cc(Cl)c2oc1=Nc1ccc(F)cc1` stands 45.1 µM; under `COc1ccc2nc(-n3c(/C=C/c4ccccc4O)nc4ccccc4c3=O)sc2c1`, above 100 µM; under `O=CC(=C(I)I)c1ccccc1`, 16.2 µM.
The compound `O=C1C=C2C(=NC34CCCCC3C(c3ccccc3)C3=C(c5ccccc5CC3)N24)c2ccccc21` (stereo not given) returned a TGI above 10 µM.
As to `O=[N+]([O-])C(C(Cl)=C(Cl)Cl)=C(N(Cc1ccccc1)Cc1ccccc1)N(Cc1ccccc1)Cc1ccccc1`, the TGI is above 100 µM.
On the same count and under the same terms, the value for `CCCC1(NC(=O)C(F)(F)F)CC(OC)OC2COC(c3ccccc3)OC21` (stereo not given) was above 100 µM.
With `CCC1NC(=O)C1NC(=O)OC` (stereo not given), the TGI was above 100 µM.
The same measure, in the same setting: under `O=c1c2nn3c(=O)n(-c4ccccc4)c(=O)c3nn2c(=O)n1-c1ccccc1` stands above 100 µM; under `COC(=O)C1=CC2CCCC1(O)C(C(C)=O)C2` (stereo not given), above 100 µM.
Still for that read-out and setting: under `CC(=O)CCCCC(=O)Nc1ccc(CC(NC(=O)OC(C)(C)C)C(=O)NCC(=O)OCc2ccccc2)cc1` (stereo not given) stands 49.5 µM.

The subject of another assay is BT-549 breast. In words: DTP human tumour cell line panel, 48 h.
As to `CC(=O)OCOC(=O)CN(CC(=O)OCOC(C)=O)Cc1cc2c(cc1OC(C)=O)Oc1cc(OC(C)=O)c(CN(CC(=O)OCOC(C)=O)CC(=O)OCOC(C)=O)cc1C21OC(=O)c2ccccc21`, the TGI was 1.16 µM.
The compound `NC(=O)c1cc2cc(Cl)cc(Cl)c2oc1=Nc1ccc(F)cc1` gave a TGI of 37 µM.
Still for that read-out and setting: the value for `COc1ccc2nc(-n3c(/C=C/c4ccccc4O)nc4ccccc4c3=O)sc2c1` was above 100 µM.
The compound `O=CC(=C(I)I)c1ccccc1` came in with a TGI of 14.1 µM.
On the same count and under the same terms, the value for `O=C1C=C2C(=NC34CCCCC3C(c3ccccc3)C3=C(c5ccccc5CC3)N24)c2ccccc21` (stereo not given) was above 10 µM.
With `O=[N+]([O-])C(C(Cl)=C(Cl)Cl)=C(N(Cc1ccccc1)Cc1ccccc1)N(Cc1ccccc1)Cc1ccccc1`, the TGI is above 100 µM.
Still for that read-out and setting: under `CCCC1(NC(=O)C(F)(F)F)CC(OC)OC2COC(c3ccccc3)OC21` (stereo not given) stands above 100 µM.
As to `CCC1NC(=O)C1NC(=O)OC` (stereo not given), the TGI was above 100 µM.
The compound `O=c1c2nn3c(=O)n(-c4ccccc4)c(=O)c3nn2c(=O)n1-c1ccccc1` showed a TGI above 100 µM.
Same read-out and setting: the value for `COC(=O)C1=CC2CCCC1(O)C(C(C)=O)C2` (stereo not given) was above 100 µM.
On the same count and under the same terms, the value for `CC(=O)CCCCC(=O)Nc1ccc(CC(NC(=O)OC(C)(C)C)C(=O)NCC(=O)OCc2ccccc2)cc1` (stereo not given) was 28.6 µM.

A further assay deals with UO-31 renal. In words: DTP human tumour cell line panel, 48 h.
For `CC(=O)OCOC(=O)CN(CC(=O)OCOC(C)=O)Cc1cc2c(cc1OC(C)=O)Oc1cc(OC(C)=O)c(CN(CC(=O)OCOC(C)=O)CC(=O)OCOC(C)=O)cc1C21OC(=O)c2ccccc21`, the TGI was 6.38 µM.
Turning to `NC(=O)c1cc2cc(Cl)cc(Cl)c2oc1=Nc1ccc(F)cc1`, the TGI was above 100 µM.
The same measure, in the same setting: under `COc1ccc2nc(-n3c(/C=C/c4ccccc4O)nc4ccccc4c3=O)sc2c1` stands above 100 µM; under `O=CC(=C(I)I)c1ccccc1`, 7.63 µM; under `O=[N+]([O-])C(C(Cl)=C(Cl)Cl)=C(N(Cc1ccccc1)Cc1ccccc1)N(Cc1ccccc1)Cc1ccccc1`, above 100 µM.
The compound `CCCC1(NC(=O)C(F)(F)F)CC(OC)OC2COC(c3ccccc3)OC21` (stereo not given) showed a TGI above 100 µM.
For `CCC1NC(=O)C1NC(=O)OC` (stereo not given), the TGI was above 100 µM.
Consider `O=c1c2nn3c(=O)n(-c4ccccc4)c(=O)c3nn2c(=O)n1-c1ccccc1`, for which the total growth inhibition concentration (TGI) is above 100 µM.
The same measure, in the same setting: under `COC(=O)C1=CC2CCCC1(O)C(C(C)=O)C2` (stereo not given) stands 38.6 µM; under `CC(=O)CCCCC(=O)Nc1ccc(CC(NC(=O)OC(C)(C)C)C(=O)NCC(=O)OCc2ccccc2)cc1` (stereo not given), 39.2 µM.

The test system of another assay is SK-MEL-5 melanoma. In words: DTP human tumour cell line panel, 48 h.
Take `CC(=O)OCOC(=O)CN(CC(=O)OCOC(C)=O)Cc1cc2c(cc1OC(C)=O)Oc1cc(OC(C)=O)c(CN(CC(=O)OCOC(C)=O)CC(=O)OCOC(C)=O)cc1C21OC(=O)c2ccccc21`: the TGI turned out to be 2.12 µM.
Same read-out and setting: under `NC(=O)c1cc2cc(Cl)cc(Cl)c2oc1=Nc1ccc(F)cc1` stands 31.7 µM.
In turn, `COc1ccc2nc(-n3c(/C=C/c4ccccc4O)nc4ccccc4c3=O)sc2c1` showed a TGI of 66.2 µM.
Regarding `O=CC(=C(I)I)c1ccccc1`, the total growth inhibition concentration (TGI) is 14 µM.
The compound `O=C1C=C2C(=NC34CCCCC3C(c3ccccc3)C3=C(c5ccccc5CC3)N24)c2ccccc21` (stereo not given) registered a TGI above 10 µM.
In the case of `O=[N+]([O-])C(C(Cl)=C(Cl)Cl)=C(N(Cc1ccccc1)Cc1ccccc1)N(Cc1ccccc1)Cc1ccccc1`, the TGI is above 100 µM.
On to `CCCC1(NC(=O)C(F)(F)F)CC(OC)OC2COC(c3ccccc3)OC21` (stereo not given), for which the TGI worked out at 45.2 µM.
`CCC1NC(=O)C1NC(=O)OC` (stereo not given) had a TGI above 100 µM.
Still for that read-out and setting: the value for `O=c1c2nn3c(=O)n(-c4ccccc4)c(=O)c3nn2c(=O)n1-c1ccccc1` was above 100 µM; that for `COC(=O)C1=CC2CCCC1(O)C(C(C)=O)C2` (stereo not given) was above 100 µM.
`CC(=O)CCCCC(=O)Nc1ccc(CC(NC(=O)OC(C)(C)C)C(=O)NCC(=O)OCc2ccccc2)cc1` (stereo not given): the TGI was determined as 27.8 µM.
